Assay results published in patent publication US11384079B2, “6-5 fused rings as C5a inhibitors” (CHEMOCENTRYX, INC., priority 2017, dated 2022).

Target: T1, C5aR (Homo sapiens, UniProt P21730)
T1 construct: U937 cells are a monocytic cell line which express C5aR; host or cells: U937 cells (cAMP treated) or isolated neutrophils
T1 sequence (P21730 1-350): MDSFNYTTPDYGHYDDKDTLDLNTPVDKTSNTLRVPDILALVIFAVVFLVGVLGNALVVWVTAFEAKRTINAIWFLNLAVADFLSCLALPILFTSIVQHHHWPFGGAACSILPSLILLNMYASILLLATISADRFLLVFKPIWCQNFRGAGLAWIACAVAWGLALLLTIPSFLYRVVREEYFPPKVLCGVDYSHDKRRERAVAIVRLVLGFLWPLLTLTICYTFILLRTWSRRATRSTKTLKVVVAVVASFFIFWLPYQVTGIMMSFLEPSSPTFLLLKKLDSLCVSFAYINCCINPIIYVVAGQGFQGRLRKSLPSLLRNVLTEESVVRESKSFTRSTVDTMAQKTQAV
Assay: chemotaxis assay (C5aR mediated migration)
Type: cell-based
Settings: migration of U937 or neutrophil cells toward C5a (0.03 nM), 1.5 hours at 37° C., read-out: Mig IC50
Method in brief: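 Migration of cAMP-treated U937 cells (0.5 mM overnight), or of human or murine neutrophils, toward C5a was measured through 5 μm polycarbonate filters in HBSS with 1% FBS. SDF-1α served as a specificity control. After 1.5 h at 37 °C, lower-chamber cells were counted directly or by CyQuant.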

| IC50 [nM] | SMILES |
| --- | --- |
| 5 to 50 | Cc1cccc(OCC(C)C)c1-n1nc2c(c1-c1cccc3[nH]ccc13)CN(Cc1ccccc1C(F)(F)F)CC2 [Example 1.222] |
| < 5 | CCc1cccc(CC)c1-n1nc2c(c1-c1ccc(Cl)c3[nH]ccc13)CN(c1cnc(C(F)(F)F)cn1)CC2 [Example 1.058] |
| 5 to 50 | CCc1cccc(CC)c1-n1nc2c(c1-c1ccc(F)c3[nH]ccc13)CN(c1ncc(C(F)(F)F)cc1Cl)CC2 [Example 1.183] |
| 5 to 50 | CCc1cccc(CC)c1-n1nc2c(c1-c1ncnc3[nH]ccc13)CN(c1ncc(C(F)(F)F)cn1)CC2 [Example 1.026] |
| < 5 | CCc1cccc(CC)c1-n1nc2c(c1-c1ccc(Cl)c3[nH]ccc13)CN(c1ncccn1)CC2 [Example 1.157] |
| < 5 | CCc1cccc(CC)c1-n1nc2c(c1-c1ccc(Cl)c3[nH]ccc13)CN(c1ccc(OC(F)(F)F)cn1)CC2 [Example 1.086] |
| 5 to 50 | CCc1cccc(CC)c1-n1nc2c(c1-c1ccc3[nH]ccc3c1)CN(c1ncc(C(F)(F)F)cn1)CC2 [Example 1.039] |
| 5 to 50 | FC(F)(F)c1ccccc1CN1CCc2nn(-c3c(Cl)cccc3Cl)c(-c3ccc4[nH]ccc4c3)c2C1 [Example 1.219] |
| 50 to 500 | CCc1cccc(CC)c1-n1nc2c(c1-c1ccc(F)c3[nH]ncc13)CN(c1ncc(C(F)(F)F)cc1F)CC2 [Example 1.079] |
| < 5 | CCc1cccc(CC)c1-n1nc2c(c1-c1cc(F)c(C)c3[nH]ccc13)CN(c1ncc(C(F)(F)F)cn1)CC2 [Example 1.093] |
| < 5 | CCc1cccc(CC)c1-n1nc2c(c1-c1ccc(Cl)c3[nH]ccc13)CN(c1ncc(C(F)(F)F)cn1)CC2 [Example 1.161] |
| < 5 | CCc1cccc(CC)c1-n1nc2c(c1-c1cc(F)c(OC)c3[nH]cc(F)c13)CN(c1ncc(C(F)(F)F)cn1)CC2 [Example 1.023] |
| 5 to 50 | Cc1cccc(OCC(C)C)c1-n1nc2c(c1-c1cccc3[nH]ccc13)CN(c1ncc(C(F)(F)F)cc1F)CC2 [Example 1.229] |
| 5 to 50 | Cc1cccc(C)c1-n1nc2c(c1-c1c(F)cc(Cl)c3[nH]ccc13)CN(c1ncc(C(F)(F)F)cn1)CC2 [Example 1.122] |
| 5 to 50 | Cc1cccc(C)c1-n1nc2c(c1-c1ccc3[nH]ccc3c1)CN(c1ncc(Cl)cc1Cl)CC2 [Example 1.197] |
| 50 to 500 | CCc1cccc(CC)c1-n1nc2c(c1-c1cc(F)c(OC)c3[nH]ccc13)C(=O)N(c1ncc(C(F)(F)F)cn1)CC2 [Example 1.033] |
| < 5 | CCc1cccc(CC)c1-n1nc2c(c1-c1c(F)cc(CO)c3[nH]ccc13)CN(c1ncc(C(F)(F)F)cn1)CC2 [Example 1.101] |
| 5 to 50 | Cc1cccc(OCC(C)C)c1-n1nc2c(c1-c1cccc3[nH]ccc13)CN(c1ncc(C(C)C)cc1F)CC2 [Example 1.198] |
| > 500 | CCc1cccc(CC)c1-n1nc2c(c1-c1ccc(Cl)c3[nH]ccc13)C(=O)N(c1ncc(C(F)(F)F)cn1)CC2 [Example 1.034] |
| 5 to 50 | Cc1cccc(C)c1-n1nc2c(c1-c1ccc(C)c3[nH]ccc13)CN(c1ncc(C(C)C)cn1)CC2 [Example 1.131] |
| < 5 | CCc1cccc(CC)c1-n1nc2c(c1-c1c(F)cc(CO)c3[nH]ccc13)CN(c1ncc(C(F)(F)F)cc1F)CC2 [Example 1.104] |
| < 5 | CCc1cccc(CC)c1-n1nc2c(c1-c1cc(F)c(Cl)c3[nH]ccc13)CN(c1ncc(C(F)(F)F)cc1F)CC2 [Example 1.085] |
| 50 to 500 | CCc1cccc(CC)c1-n1nc2c(c1-c1ccc3[nH]ccc3c1)CN(C1CCOCC1)CC2 [Example 1.208] |
| < 5 | CCc1cccc(CC)c1-n1nc2c(c1-c1ccc3[nH]ccc3c1)CN(Cc1c(Cl)cccc1C(F)(F)F)CC2 [Example 1.223] |
| < 5 | CCc1cccc(CC)c1-n1nc2c(c1-c1ccc3[nH]ccc3c1)CN(Cc1cc(F)ccc1Cl)CC2 [Example 1.230] |
| 50 to 500 | COc1cccc(F)c1-n1nc2c(c1-c1cc(F)c(OC)c3[nH]ccc13)CN(c1ncc(C(F)(F)F)cn1)CC2 [Example 1.007] |

| IC50 [nM] | SMILES |
| --- | --- |
| < 5 | CCc1cccc(CC)c1-n1nc2c(c1-c1c(F)cc(Cl)c3[nH]ccc13)CN(c1ncc(C(C)C)cc1F)CC2 [Example 1.125] |
| 5 to 50 | CCc1cccc(CC)c1-n1nc2c(c1-c1ccc(Cl)c3[nH]ccc13)CN(c1cnc(C3CC3)cn1)CC2 [Example 1.067] |
| 50 to 500 | Cc1cccc(OCC(C)C)c1-n1nc2c(c1-c1ccc3cc[nH]c3c1)CN(c1ncc(C(F)(F)F)cc1F)CC2 [Example 1.228] |
| 5 to 50 | CCc1cccc(CC)c1-n1nc2c(c1-c1ccc(Cl)c3[nH]ccc13)CN(c1ncc(Cl)c(OC)n1)CC2 [Example 1.121] |
| < 5 | CCc1cccc(CC)c1-n1nc2c(c1-c1c(F)cc(C)c3[nH]ccc13)CN(c1ncc(C(F)(F)F)cn1)CC2 [Example 1.141] |
| < 5 | CCc1cccc(CC)c1-n1nc2c(c1-c1ccc(C)c3[nH]ccc13)CN(c1ccc(C(C)C)cn1)CC2 [Example 1.127] |
| < 5 | CCc1cccc(CC)c1-n1nc2c(c1-c1c(F)cc(C)c3[nH]ccc13)CN(c1ccc(C(F)(F)F)cn1)CC2 [Example 1.143] |
| < 5 | CCc1cccc(CC)c1-n1nc2c(c1-c1c(F)cc(Cl)c3[nH]ccc13)CN(c1ccc(C(F)(F)F)cn1)CC2 [Example 1.133] |
| < 5 | CCc1cccc(CC)c1-n1nc2c(c1-c1ccc(F)c3[nH]ccc13)CN(c1ncc(C3CC3)cc1Cl)CC2 [Example 1.176] |
| 50 to 500 | CCc1cccc(CC)c1-n1nc2c(c1-c1cc(Cl)cc3[nH]cnc13)CN(c1ncc(C(F)(F)F)cn1)CC2 [Example 1.025] |
| 5 to 50 | CCc1cccc(CC)c1-n1nc2c(c1-c1nccc3[nH]ccc13)CN(c1ncc(C(F)(F)F)cn1)CC2 [Example 1.031] |
| < 5 | CCc1cccc(CC)c1-n1nc2c(c1-c1c(F)cc(C)c3[nH]ccc13)CN(c1ncc(C(C)C)cc1F)CC2 [Example 1.145] |
| < 5 | CCc1cccc(CC)c1-n1nc2c(c1-c1c(F)cc(C)c3[nH]ccc13)CN(c1ccc(C(C)C)cn1)CC2 [Example 1.128] |
| 50 to 500 | Cc1cccc(C)c1-n1nc2c(c1-c1cc(C)c3[nH]ccc3c1)CN(c1ncc(Cl)cc1Cl)CC2 [Example 1.189] |
| < 5 | CCc1cccc(CC)c1-n1nc2c(c1-c1ccc(C)c3[nH]cc(Cl)c13)CN(c1ncc(C(F)(F)F)cc1F)CC2 [Example 1.170] |
| < 5 | CCc1cccc(CC)c1-n1nc2c(c1-c1ccc(F)c3[nH]ccc13)CN(c1ncc(Cl)cn1)CC2 [Example 1.184] |
| < 5 | CCc1cccc(CC)c1-n1nc2c(c1-c1ccc(F)c3[nH]ccc13)CN(c1ncc(C(F)(F)F)cc1F)CC2 [Example 1.188] |
| 5 to 50 | Cc1cccc(C)c1-n1nc2c(c1-c1ccc3[nH]ccc3c1)CN(C(=O)OC(C)(C)C)CC2 [Example 1.240] |
| < 5 | CCc1cccc(CC)c1-n1nc2c(c1-c1ccc(Cl)c3[nH]ccc13)CN(c1ncc(C)cn1)CC2 [Example 1.156] |
| 5 to 50 | Cc1cccc(OCC(C)C)c1-n1nc2c(c1-c1ccc3[nH]ccc3c1)CN(c1nc(Cl)ns1)CC2 [Example 1.214] |
| < 5 | CCc1cccc(CC)c1-n1nc2c(c1-c1cc(F)c(OC)c3[nH]ccc13)CN(c1ncc(C(F)(F)F)cn1)CC2 [Example 1.059] |
| 5 to 50 | Cc1cccc(C)c1-n1nc2c(c1-c1ccc(C)c3[nH]ccc13)CN(c1ccc(C(F)(F)F)cn1)CC2 [Example 1.130] |
| < 5 | CCc1cccc(CC)c1-n1nc2c(c1-c1ccc(C)c3[nH]ccc13)CN(c1ncc(C(F)(F)F)cn1)CC2 [Example 1.140] |
| 5 to 50 | Cc1cccc(OCC(C)C)c1-n1nc2c(c1-c1ccc3[nH]ccc3c1)CN(Cc1cc(Cl)ccc1C(F)(F)F)CC2 [Example 1.203] |
| 5 to 50 | COc1cnc(N2CCc3nn(-c4c(C)cccc4C)c(-c4ccc(Cl)c5[nH]ccc45)c3C2)nc1 [Example 1.112] |
| < 5 | CCc1cccc(CC)c1-n1nc2c(c1-c1c(F)cc(C)c3[nH]ccc13)CN(c1ncc(C(F)(F)F)cc1F)CC2 [Example 1.150] |
